Source: patent US11197888B2, “LHRH-platinum conjugates for treating reproductive cancers” (priority 2015, dated 2021)

Tested on: 4T1 tumors
Experiment: In-vivo analysis of impact on 4T1 tumor growth in Balb/c mice
Set-up: species or system female Balb/c mice
Details: 4T1 tumors in mammary fat pad, carboplatin 5 mg/kg/wk or molar-equivalent Pt-LHRH, IP, 2 weeks, vs control
Method: In this experiment at least one eleven week old female Balb/c mice were utilized. The animals were allowed to acclimate for 1 week before experimentation and were maintained on a 12 hours light and dark cycle, and fed standard rodent chow (Prolab ISOPRO RMH 3000 Irradiated Lab Diet; Purina Mills International). Animal protocols were approved by the committee on animal research care and use at Eastern Kentucky University. 4T1 tumors were grown in the right abdominal mammary fat pad of the mice for 7 days. After tumor initiation (˜100 mm3) the mice were administered Pt-LHRH (carboplatin molar-equivalent dosage) through IP injection and compared to those treated with carboplatin (5 mg/kg/wk), no treatment, and LHRH plus carboplatin (unbound) controls for 2 weeks. Tumor growth was monitored daily and tumor volumes (mm3) were calculated using the formula: (width) 2×length/2, where width is the smaller of the two measurements. At two weeks the mice were sacrificed and tumor volume and weight were measured.

Structure (SMILES): N.N.O=C([O-])C1(C(=O)[O-])CCC1.[Pt+2] [carboplatin]
- tumor growth: no statistically significant reduction in tumor growth
